{"source": "patent US10821160B2", "about": "“L-asparaginase variants and fusion proteins with reduced L-glutaminase activity and enhanced stability” (priority 2016, dated 2020)", "key": {"[1]": {"molecular_target": "T1, 10K PEGylated Erwinia chrysanthemi L-asparaginase (ErA) variant A31I-E63Q-S254Q-D84C (10K PEGylated-ErA-TM2-D84C) (Dickeya chrysanthemi, UniProt P06608, A52I/D105C/E84Q/S275Q)", "T1 construct": "lacking the first 21-amino acid residue signal peptide; made in house", "test": "L-asparaginase activity, comparison with ErA-TM2", "type": "biochemical", "experimental": "(§1) L-asparaginase activity was determined using a continuous spectroscopic enzyme-coupled assay as previously described (Schalk, et al. (2014) J. Biol. Chem. 289:33175-33186). In brief, the assay measures the production of L-aspartate through the 1:1 oxidation of reduced NADH. The conversion of NADH to NAD^+ was measured spectrophotometrically as a decrease in absorbance at 340 nm at 37° C. All measurements were taken in triplicate. Rates were fit to the Michaelis-Menten equation using SIGMAPLOT software (Systat Software Inc).\n(§2) The resulting […] protein was expressed, purified and PEGylated with mPEG-10K."}, "[2]": {"molecular_target": "T2, Erwinia chrysanthemi L-asparaginase (ErA) variant A31I-E63Q-S254Q-D84C (ErA-TM2-D84C) (Dickeya chrysanthemi, UniProt P06608, A52I/D105C/E84Q/S275Q)", "T2 construct": "lacking the first 21-amino acid residue signal peptide; made in house", "test": "L-asparaginase activity, comparison with ErA-TM2", "type": "biochemical", "experimental": "as §1, §2"}, "[3]": {"molecular_target": "T3, Erwinia chrysanthemi L-asparaginase (ErA) variant A31I-E63Q-S254N (ErA-TM1), SEQ ID NO:7 (Dickeya chrysanthemi, UniProt P06608, A52I/E84Q/S275N)", "T3 construct": "lacking the first 21-amino acid residue signal peptide; His6-SUMO (yeast Smt3p) (N, cleaved yes); made in house; host or cells: E. coli BL21(DE3) C41", "type": "biochemical", "details": "37° C"}, "[4]": {"tested_on": "Erwinia chrysanthemi L-asparaginase (ErA) variants ErA-E63Q, ErA-DM2 (A31I-E63Q) and ErA-DM1 (E63Q-S254N)", "test": "L-asparaginase activity of the mutants as a group vs ErA-WT", "type": "biochemical", "details": "Asn", "experimental": "as §1\n(§3) Using colorimetric enzyme-coupled assays, L-asparaginase and L-glutaminase activity of the enzymes was determined. […] Seventeen of the 18 mutants had reduced L-glutaminase activity (Table 7). However, for most of the mutants, this decrease was concomitant with a decline in the L-asparaginase activity. Using the criteria of (i) ≥60% retained L-asparaginase activity (relative to Erw-WT) and (ii) ≤5% L-glutaminase versus and L-asparaginase activity, mutants ErA-E63Q, ErA-S254P, ErA-A31I+E63Q and ErA-S254N+E63Q were selected for further study."}, "[5]": {"molecular_target": "Erwinia chrysanthemi L-asparaginase (ErA) variant E63Q (ErA-E63Q), SEQ ID NO:2 (Dickeya chrysanthemi, UniProt P06608, E84Q)", "details": "37° C", "experimental": "as §1\n(§4) The parameters that define the asparagine-depleting power of such enzyme drugs are of significance. […] Enzymologists often combine these two parameters into a single value (kcat/Km) that is thought to represent the efficiency of the enzyme.\n(§5) Using colorimetric enzyme-coupled assays, L-asparaginase and L-glutaminase activity of the enzymes was determined."}, "[6]": {"molecular_target": "T4, Erwinia chrysanthemi L-asparaginase (ErA) variant E63Q-S254Q (ErA-DM3), SEQ ID NO:5 (Dickeya chrysanthemi, UniProt P06608, E84Q/S275Q)", "T4 construct": "lacking the first 21-amino acid residue signal peptide; His6-SUMO (yeast Smt3p) (N, cleaved yes); made in house; host or cells: E. coli BL21(DE3) C41", "type": "biochemical", "details": "37° C", "experimental": "as §1, §4, §5"}, "[7]": {"molecular_target": "T5, Erwinia chrysanthemi L-asparaginase (ErA) variant A31I-E63Q (ErA-DM2), SEQ ID NO:4 (Dickeya chrysanthemi, UniProt P06608, A52I/E84Q)", "T5 construct": "lacking the first 21-amino acid residue signal peptide; His6-SUMO (yeast Smt3p) (N, cleaved yes); made in house; host or cells: E. coli BL21(DE3) C41", "type": "biochemical", "details": "37° C", "experimental": "as §1, §3"}, "[8]": {"molecular_target": "T6, Erwinia chrysanthemi L-asparaginase (ErA) variant S254P (ErA-S254P) (Dickeya chrysanthemi, UniProt P06608, S275P)", "T6 construct": "lacking the first 21-amino acid residue signal peptide; His6-SUMO (yeast Smt3p) (N, cleaved yes); made in house; host or cells: E. coli BL21(DE3) C41", "type": "biochemical", "details": "37° C", "experimental": "as §1, §3"}, "[9]": {"molecular_target": "T7, Escherichia coli L-asparaginase, wild type (EcA-WT), SEQ ID NO:9 (Escherichia coli, UniProt P00805)", "T7 sequence (P00805 with tags, fused parts or gaps)": "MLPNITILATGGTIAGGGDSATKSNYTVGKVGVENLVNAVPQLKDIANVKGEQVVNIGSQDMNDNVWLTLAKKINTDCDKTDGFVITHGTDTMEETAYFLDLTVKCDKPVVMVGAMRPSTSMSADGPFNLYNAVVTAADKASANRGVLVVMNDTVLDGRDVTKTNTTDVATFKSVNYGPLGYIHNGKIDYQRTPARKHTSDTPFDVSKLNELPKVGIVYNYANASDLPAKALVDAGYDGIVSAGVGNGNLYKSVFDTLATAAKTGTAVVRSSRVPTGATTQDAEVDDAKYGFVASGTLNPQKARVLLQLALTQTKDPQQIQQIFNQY", "test": "L-asparaginase activity, continuous spectroscopic enzyme-coupled assay", "type": "biochemical", "details": "37° C", "experimental": "as §1\nas §4, with “enzyme. […] Therefore, the ErA enzyme was selected for developing a variant with low L-glutaminase activity.” for “enzyme.”"}, "[10]": {"molecular_target": "Erwinia chrysanthemi L-asparaginase (ErA) variant A31I-E63Q-S254Q (ErA-TM2), SEQ ID NO:6 (Dickeya chrysanthemi, UniProt P06608, A52I/E84Q/S275Q)", "type": "biochemical", "design": "lacking the first 21-amino acid residue signal peptide; His6-SUMO (yeast Smt3p) (N, cleaved yes); made in house; host or cells: E. coli BL21(DE3) C41", "experimental": "as §1, §5"}, "[11]": {"molecular_target": "T8, Erwinia chrysanthemi L-asparaginase, wild type (ErA-WT), SEQ ID NO:1 (Dickeya chrysanthemi, UniProt P06608)", "T8 construct": "lacking the first 21-amino acid residue signal peptide; His6-SUMO (yeast Smt3p) (N, cleaved yes); made in house; host or cells: E. coli BL21(DE3) C41", "test": "L-asparaginase activity, continuous spectroscopic enzyme-coupled assay", "type": "biochemical", "details": "37° C", "experimental": "as §1, with “In” for “L-asparaginase activity was determined using a continuous spectroscopic enzyme-coupled assay as previously described (Schalk, et al. (2014) J. Biol. Chem. 289:33175-33186). In”\nas §4, §5"}, "[12]": {"molecular_target": "T9, Erwinia chrysanthemi L-asparaginase (ErA) variant E63Q-S254N (ErA-DM1), SEQ ID NO:3 (Dickeya chrysanthemi, UniProt P06608, E84Q/S275N)", "T9 construct": "lacking the first 21-amino acid residue signal peptide; His6-SUMO (yeast Smt3p) (N, cleaved yes); made in house; host or cells: E. coli BL21(DE3) C41", "type": "biochemical"}}, "note": "“And” between values parts separate entries of the source, which are not always exact repeats. Identical values can stand only once.", "data": [{"compound": "NC(=O)C[C@H](N)C(=O)O", "note": "[Asn, L-asparagine]", "values": [{"measurement": "kobs at 2 mM Asn", "setting": "[1]", "value": 163.4, "unit": "s⁻¹"}, {"measurement": "kobs at 2 mM Asn", "setting": "[2]", "value": 172.8, "unit": "s⁻¹"}, {"measurement": "kobs @20 μM", "setting": "[3]; 20 μM Asn", "value": 16.4, "unit": "s⁻¹"}, {"measurement": "kobs @50 μM", "setting": "[3]; 50 μM Asn", "value": 29.2, "unit": "s⁻¹"}, {"measurement": "kcat", "setting": "[3]; Asn", "value": "109.7 ± 0.8", "unit": "s⁻¹"}, {"measurement": "near wild-type kcat (range, of ErA-WT)", "setting": "[4]", "value": "60-90%"}, {"measurement": "kobs @20 μM", "setting": "[5]; 20 μM Asn", "value": 46.3, "unit": "s⁻¹"}, {"measurement": "kobs @50 μM", "setting": "[5]; 50 μM Asn", "value": 92.2, "unit": "s⁻¹"}, {"measurement": "Km", "setting": "[5]; Asn", "value": "48.1 µM and 50.7 µM"}, {"measurement": "kobs @20 μM", "setting": "[6]; 20 μM Asn", "value": 14.2, "unit": "s⁻¹"}, {"measurement": "kobs @50 μM", "setting": "[6]; 50 μM Asn", "value": "36.3 s⁻¹ and 30.8 s⁻¹"}, {"measurement": "Km", "setting": "[6]; Asn", "value": "179 ± 5.6", "unit": "µM"}, {"measurement": "kcat", "setting": "[6]; Asn", "value": "147.3 ± 1.0", "unit": "s⁻¹"}, {"measurement": "kobs @20 μM", "setting": "[7]; 20 μM Asn", "value": 38.8, "unit": "s⁻¹"}, {"measurement": "kobs @50 μM", "setting": "[7]; 50 μM Asn", "value": 69.7, "unit": "s⁻¹"}, {"measurement": "Km", "setting": "[7]; Asn", "value": "36.9 ± 2.2", "unit": "µM"}, {"measurement": "kcat", "setting": "[7]; Asn", "value": "123.0 ± 1.8", "unit": "s⁻¹"}, {"measurement": "kobs @20 μM", "setting": "[8]; 20 μM Asn", "value": 4.5, "unit": "s⁻¹"}, {"measurement": "kobs @50 μM", "setting": "[8]; 50 μM Asn", "value": 10.5, "unit": "s⁻¹"}, {"measurement": "Km", "setting": "[8]; Asn", "value": "1150 ± 25.5", "unit": "µM"}, {"measurement": "kcat", "setting": "[8]; Asn", "value": "250.0 ± 2.8", "unit": "s⁻¹"}, {"measurement": "kobs @20 μM", "setting": "[9]; 20 μM Asn", "value": 28.3, "unit": "s⁻¹"}, {"measurement": "kobs @50 μM", "setting": "[9]; 50 μM Asn", "value": 41.3, "unit": "s⁻¹"}, {"measurement": "kobs @20 μM", "setting": "[10]; 20 μM Asn, 37° C", "value": 40.8, "unit": "s⁻¹"}, {"measurement": "kobs @50 μM", "setting": "[10]; 50 μM Asn, 37° C", "value": 89.1, "unit": "s⁻¹"}, {"measurement": "kobs at 2 mM Asn", "setting": "[10]; 2 mM Asn", "value": 178.8, "unit": "s⁻¹"}, {"measurement": "Km", "setting": "[10]; Asn, 37° C", "value": "95 ± 3.5", "unit": "µM"}, {"measurement": "kcat", "setting": "[10]; Asn, 37° C", "value": "261.2 ± 2.8", "unit": "s⁻¹"}, {"measurement": "kobs @20 μM", "setting": "[11]; 20 μM Asn", "value": 50.7, "unit": "s⁻¹"}, {"measurement": "kobs @50 μM", "setting": "[11]; 50 μM Asn", "value": 105.3, "unit": "s⁻¹"}, {"measurement": "kobs @20 μM", "setting": "[12]; 20 μM Asn, 37° C", "value": 18.9, "unit": "s⁻¹"}, {"measurement": "kobs @50 μM", "setting": "[12]; 50 μM Asn, 37° C", "value": 36.3, "unit": "s⁻¹"}, {"measurement": "kcat", "setting": "[12]; Asn, 37° C", "value": "169.8 ± 1.5", "unit": "s⁻¹"}, {"measurement": "increase in Asn Km", "setting": "[12]; Asn, relative to ErA-WT", "value": 4, "unit": "fold"}]}]}
